Assay results: patent publication US6706276B2, “Compositions and methods for trapping and inactivating pathogenic microbes and spermatozoa” (Rush-Presbyterian-St. Luke's Medical Center, priority 2000, dated 2004)
Marks after values point to notes of the source that are not given here.

What was measured:
HSV-2 strain 186 = assay: Genital herpes infection in the mouse model; format: in vivo, mice; conditions: Table IV, 20 sec before virus inoculation; for Protected Against Disease, Number / Protected Against Infection, Number: 15 inoculated
[1] = tested on: vaginal/cervical epithelial and other cells; conditions: in vitro; cited from earlier work

Substance: nonoxynol-9 [N-9]
- Protected Against Disease, % (HSV-2 strain 186; N-9 5% in PBS): 40^d %
- Protected Against Infection, % (HSV-2 strain 186; N-9 5% in PBS): 13%
- Protected Against Disease, Number (HSV-2 strain 186; N-9 5% in PBS): 6
- Protected Against Infection, Number (HSV-2 strain 186; N-9 5% in PBS): 2
- Protected Against Disease, % (HSV-2 strain 186; N-9 50% in PBS): 100^c %
- Protected Against Infection, % (HSV-2 strain 186; N-9 50% in PBS): 93^c %
- Protected Against Disease, Number (HSV-2 strain 186; N-9 50% in PBS): 15
- Protected Against Disease, % (HSV-2 strain 186; N-9 100% in PBS): 100^c %
- Protected Against Infection, % (HSV-2 strain 186; N-9 100% in PBS): 93^c %
- Protected Against Disease, Number (HSV-2 strain 186; N-9 100% in PBS): 15
- Protected Against Infection, Number (HSV-2 strain 186; N-9 100% in PBS): 14
- Protected Against Infection, Number (HSV-2 strain 186; N-9 in PBS): 14
- lowest concentration injuring cells [1]: about 0.0005%
